Experimental data reported in patent US6667312B2, “Thioether substituted imidazoquinolines” (3M Innovative Properties Company, priority 2000, dated 2003).
Where a name gives a salt, the structure may show the parent alone.

Columns and labels:
interferon (α) = assay: Cytokine Induction in Human Cells: interferon; format: cell-based; details: human PBMC, 18 to 24 hours, tested 30-0.014 μM, interferon (α) by ELISA; read-out: Lowest Effective Concentration (μM) Interferon
Source text: (§1) An in vitro human blood cell system is used to assess cytokine induction. Activity is based on the measurement of interferon and tumor necrosis factor (α) (IFN and TNF, respectively) secreted into culture media as described by Testerman et. al. In “Cytokine Induction by the Immunomodulators Imiquimod and S-27609”, Journal of Leukocyte Biology, 58, 365-372 (September, 1995).
(§2) Whole blood from healthy human donors is collected by venipuncture into EDTA vacutainer tubes. Peripheral blood mononuclear cells (PBMC) are separated from whole blood by density gradient centrifugation using Histopaque®-1077. Blood is diluted 1:1 with Dulbecco's Phosphate Buffered Saline (DPBS) or Hank's Balanced Salts Solution (HBSS). The PBMC layer is collected and washed twice with DPBS or HBSS and resuspended at 4×10^6 cells/mL in RPMI complete. The PBMC suspension is added to 48 well flat bottom sterile tissue culture plates (Costar, Cambridge, Mass. or Becton Dickinson Labware, Lincoln Park, N.J.) containing an equal volume of RPMI complete media containing test compound.
(§3) The compounds are solubilized in dimethyl sulfoxide (DMSO). The DMSO concentration should not exceed a final concentration of 1% for addition to the culture wells. The compounds are generally tested at concentrations ranging from 30-0.014 μM.
(§4) The solution of test compound is added at 60 μM to the first well containing RPMI complete and serial 3 fold dilutions are made in the wells. The PBMC suspension is then added to the wells in an equal volume, bringing the test compound concentrations to the desired range (30-0.014 μM). The final concentration of PBMC suspension is 2×10^6 cells/mL. The plates are covered with sterile plastic lids, mixed gently and then incubated for 18 to 24 hours at 37° C. in a 5% carbon dioxide atmosphere.
(§5) Following incubation the plates are centrifuged for 10 minutes at 1000 rpm (˜200× g) at 4° C. The cell-free culture supernatant is removed with a sterile polypropylene pipet and transferred to sterile polypropylene tubes. Samples are maintained at −30 to −70° C. until analysis. The samples are analyzed for interferon (α) by ELISA and for tumor necrosis factor (α) by ELISA or IGEN Assay
Interferon (α) concentration is determined by ELISA using a Human Multi-Species kit from PBL Biomedical Laboratories, New Brunswick, N.J. Results are expressed in pg/mL.
(§6) The table below lists the lowest concentration found to induce interferon and the lowest concentration found to induce tumor necrosis factor for each compound.

[1] = tested on: tumor necrosis factor (α); assay: Cytokine Induction in Human Cells: tumor necrosis factor; format: cell-based; details: human PBMC, 18 to 24 hours, tested 30-0.014 μM, TNF by ELISA or IGEN assay; read-out: Lowest Effective Concentration (μM) Tumor Necrosis Factor
Source text: as §1, §2, §3, §4, §5
Tumor necrosis factor (α) (TNF) concentration is determined using ELISA kits available from Biosource International, Camarillo, Calif. Alternately, the TNF concentration can be determined by Origen® M-Series Immunoassay and read on an IGEN M-8 analyzer from IGEN International, Gaithersburg, Md. The immunoassay uses a human TNF capture and detection antibody pair from Biosource International, Camarillo, Calif. Results are expressed in pg/mL.
as §6

Row | melting point [°C] | Structure (SMILES) | minimal effective concentration (interferon (α)) [µM] | minimal effective concentration [1] [µM]
1 | 237 to 238 | CCCCc1nc2c(N)nc3c(c2n1CCSc1ccccc1)CCCC3 (as salt: hydrochloride) [Example 2, 2-butyl-1-[2-(phenylthio)ethyl]-6,7,8,9-tetrahydro-1H-imidazo[4,5-c]quinolin-4-amine Hydrochloride] | – | –
2 | – | CCCCc1nc2c(N)nc3c(c2n1CCSc1ccccc1)CCCC3 [Example 2, 2-butyl-1-[2-(phenylthio)ethyl]-6,7,8,9-tetrahydro-1H-imidazo[4,5-c]quinolin-4-amine Hydrochloride] | 0.12 | 0.37
3 | – | CCCCc1nc2c(N)nc3ccccc3c2n1CCCCCS(C)(=O)=O [Example 11, 2-butyl-1-[5-(methylsulfonyl)pentyl]-1H-imidazo[4,5-c]quinolin-4-amine] | 0.01 | 0.12
4 | – | CCc1nc2c(N)nc3ccccc3c2n1CCCCCS(C)(=O)=O [Example 13, 2-ethyl-1-[5-(methylsulfonyl)pentyl]-1H-imidazo[4,5-c]quinolin-4-amine] | 0.12 | 3.33
5 | – | CCCc1nc2c(N)nc3ccccc3c2n1CCCCS(C)(=O)=O [Example 30, 1-[4-(methylsulfonyl)butyl]-2-propyl-1H-imidazo[4,5-c]quinolin-4-amine] | 0.37 | 3.33
6 | – | CCCCc1nc2c(N)nc3ccccc3c2n1CCCCS(=O)(=O)CC [Example 39] | 0.04 | 0.04
7 | – | CCCCc1nc2c(N)nc3ccccc3c2n1CCCCSC(C)(C)C [Example 40] | 0.01 | 0.01
8 | – | CCCCc1nc2c(N)nc3ccccc3c2n1CCCCSc1ccc(F)cc1 [Example 41] | 0.37 | 0.37
9 | – | CCCCc1nc2c(N)nc3ccccc3c2n1CCCCS(=O)(=O)c1ccc(F)cc1 [Example 42] | 0.12 | 0.12
10 | – | CCc1nc2c(N)nc3ccccc3c2n1CCCCSC(C)C [Example 43] | 0.014 | 0.37
11 | – | CCc1nc2c(N)nc3ccccc3c2n1CCCCSc1cc(Cl)cc(Cl)c1 [Example 44] | 1.11 | 10
12 | – | CCc1nc2c(N)nc3ccccc3c2n1CCCCS(=O)(=O)C1CCCC1 [Example 45] | 0.37 | 1.11
13 | – | CCc1nc2c(N)nc3ccccc3c2n1CCCCS(=O)(=O)c1cc(Cl)cc(Cl)c1 [Example 46] | 0.12 | 0.37
14 | – | CCc1nc2c(N)nc3ccccc3c2n1CCCCSC1CCCCC1 [Example 47] | 0.37 | 3.33
15 | – | CCCCSCCCCn1c(CC)nc2c(N)nc3ccccc3c21 [Example 48] | 0.014 | 0.12
16 | – | CCc1nc2c(N)nc3ccccc3c2n1CCCCSc1ccc(Cl)cc1 [Example 49] | 0.37 | 1.11
17 | – | CCCCS(=O)(=O)CCCCn1c(CC)nc2c(N)nc3ccccc3c21 [Example 50] | 0.37 | 1.11
18 | – | CCc1nc2c(N)nc3ccccc3c2n1CCCCSc1ccc(F)cc1 [Example 51] | 0.12 | 1.11
19 | – | CCc1nc2c(N)nc3ccccc3c2n1CCCCS(=O)(=O)C(C)C [Example 52] | 0.37 | 1.11
20 | – | CCSCCCCn1c(CC)nc2c(N)nc3ccccc3c21 [Example 53] | 0.04 | 0.37

Row | melting point [°C] | Structure (SMILES) | minimal effective concentration (interferon (α)) [µM] | minimal effective concentration [1] [µM]
21 | – | CCc1nc2c(N)nc3ccccc3c2n1CCCCS(=O)(=O)CC [Example 54] | 0.37 | 1.11
22 | – | CCc1nc2c(N)nc3ccccc3c2n1CCCCS(=O)(=O)C1CCCCC1 [Example 55] | 0.12 | 1.11
23 | – | CCCCc1nc2c(N)nc3ccccc3c2n1CCS(=O)(=O)C(C)C [Example 56] | 0.37 | 0.37
24 | – | CCCCc1nc2c(N)nc3ccccc3c2n1CCS(=O)(=O)c1ccccc1 [Example 57] | 1.11 | 1.11
25 | – | CCCCc1nc2c(N)nc3ccccc3c2n1CCS(=O)(=O)c1ccc(F)cc1 [Example 58] | 1.11 | 1.11
26 | – | CCCCc1nc2c(N)nc3ccccc3c2n1CCSC(C)(C)C [Example 59] | 0.01 | 0.04
27 | – | CCCCc1nc2c(N)nc3ccccc3c2n1CCS(=O)(=O)C(C)(C)C [Example 60] | 0.37 | 0.37
28 | – | CCCCc1nc2c(N)nc3ccccc3c2n1CCSCCC [Example 61] | 0.04 | 0.12
29 | – | CCCCc1nc2c(N)nc3ccccc3c2n1CCS(=O)(=O)CCC [Example 62] | 0.12 | 0.37
30 | – | CCCCc1nc2c(N)nc3ccccc3c2n1CCSCC(C)C [Example 63] | 0.04 | 0.04
31 | – | CCCCc1nc2c(N)nc3ccccc3c2n1CCS(=O)(=O)CC(C)C [Example 64] | 0.12 | 0.12
32 | – | CCCCc1nc2c(N)nc3ccccc3c2n1CCSCC [Example 65] | 0.01 | 0.04
33 | – | CCCCc1nc2c(N)nc3ccccc3c2n1CCS(=O)(=O)CC [Example 66] | 0.12 | 0.12
34 | 182 to 185 | CCc1nc2c(N)nc3ccccc3c2n1CCCCSc1ncccn1 [Example 72, 2-ethyl-1-[4-(pyrimidin-2-ylthio)butyl]-1H-imidazo[4,5-c]quinolin-4-amine] | – | –
35 | 213 to 216 | Cc1nc2c(N)nc3c(c2n1CCCCS(C)(=O)=O)CCCC3 [Example 74, 2-methyl-1-[4-(methylsulfonyl)butyl]-6,7,8,9-tetrahydro-1H-imidazo[4,5-c]quinolin-4-amine] | – | –
36 | 172 to 174 | Cc1nc2c(N)nc3c(c2n1CCCCCS(C)(=O)=O)CCCC3 [Example 75, 2-methyl-1-[5-(methylsulfonyl)pentyl]-6,7,8,9-tetrahydro-1H-imidazo[4,5-c]quinolin-4-amine] | – | –
37 | 177 to 178 | Cc1nc2c(N)nc3c(c2n1CCCCS(=O)(=O)C(C)C)CCCC3 [Example 76, 2-methyl-1-{4-[(1-methylethyl)sulfonyl]butyl}-6,7,8,9-tetrahydro-1H-imidazo[4,5-c]quinolin-4-amine] | – | –
38 | 159 to 162 | Cc1nc2c(N)nc3c(c2n1CCCCS(=O)(=O)c1ccc(F)cc1)CCCC3 [Example 77, 2-methyl-1-{4-[(4-fluorophenyl)sulfonyl]butyl}-6,7,8,9-tetrahydro-1H-imidazo[4,5-c]quinolin-4-amine] | – | –
39 | 208 to 210 | Cc1nc2c(N)nc3c(c2n1CCCCS(=O)(=O)C(C)(C)C)CCCC3 [Example 78, 2-methyl-1-{4-[(1,1-dimethylethyl)sulfonyl]butyl}-6,7,8,9-tetrahydro-1H-imidazo[4,5-c]quinolin-4-amine] | – | –
40 | 170 to 171 | CCOCc1nc2c(N)nc3c(c2n1CCCCS(C)(=O)=O)CCCC3 [Example 79, 2-ethoxymethyl-1-(4-methanesulfonyl-butyl)-6,7,8,9-tetrahydro-1H-imidazo[4,5-c]quinolin-4-amine] | – | –
